Data: patent publication US20080139664A1, “ANTI-GLYCATION AGENTS FOR PREVENTING AGE-, DIABETES-, AND SMOKING-RELATED COMPLICATIONS” (NATIONAL RESEARCH COUNCIL OF CANADA, priority 2001, published 2008)
pIC50: −log10 of the molar value. Where a name gives a salt, the structure may show the parent alone. Read-outs that look alike come from different tables or passages of the source.

Key:
[1] = system: bovine serum albumin (BSA); experiment: Maillard fluorescence-based assay of AGEs formation, IC50 determination (BSA + D-ribose)
[2] = system: bovine serum albumin (BSA)
lysozyme = experiment: ESI-MS of lysozyme glycoforms after incubation with D-ribose; conditions: 37° C., 5 days; for Peak area as % of total area of all glycoforms, 14,569: lysozyme + 2D-ribose − 2H2O (14,569 Da); for Peak area as % of total area of all glycoforms, 14,551: lysozyme + 2D-ribose − 3H2O (14,551 Da); for Peak area as % of total area of all glycoforms, 14,533: lysozyme + 2D-ribose − 5H2O (14,533 Da); for Peak area as % of total area of all glycoforms, 14,515: lysozyme + 2D-ribose − 6H2O (14,515 Da); for Peak area as % of total area of all glycoforms, 14,419: lysozyme + D-ribose − 2H2O (14,419 Da); for Peak area as % of total area of all glycoforms, 14,401: lysozyme + D-ribose − 3H2O (14,401 Da); for Peak area as % of total area of all glycoforms, 14,437: lysozyme + D-ribose − H2O (14,437 Da); for Peak area as % of total area of all glycoforms, 14,496: lysozyme + D-ribose − H2O with one carboxymethylated Lys residue (14,496 Da); for Peak area as % of total area of all glycoforms, 14,364: lysozyme with one carboxymethylated Lys residue (14,364 Da); for Peak area as % of total area of all glycoforms, 14,305: unmodified lysozyme (14,305 Da);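 as to all read-outs here: lysozyme incubated with D-ribose, with or without anti-glycation agents, then separated by reversed-phase HPLC and analysed by electrospray mass spectrometry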
Description: The effect of anti-glycation agents on the accumulation of glycated forms (glycoforms) of protein was evaluated by using electrospray mass spectrometry (ESI-MS). As the molecular mass of BSA was too large to monitor the small mass changes of its glycoforms, lysozyme was incubated with D-ribose and anti-glycants. Lysozyme and its glycoforms were isolated by RP-HPLC and analyzed by mass spectrometry.
Samples of lysozyme (0.756 mM; 4.54 mM of Lys residues) and D-ribose (50 mM) were incubated in the presence and absence of the selected anti-glycation agents at 37° C. for 5 days and subjected to electrospray mass spectrometry (ESI-MS) in order to characterize the protein intermediates as well as carboxymethylated lysozyme. Prior to MS measurements, the proteins were isolated by reversed phase-HPLC and were semi-dried by freeze drying.

[3] = inhibition of Maillard fluorescence development, 0.075 mM BSA, 50 mM D-ribose, 37° C., 5 days

CCCCCCCCCCCCCCCC(=O)OC[C@@H](NC(=O)C(Cl)Cl)[C@H](O)c1ccc([N+](=O)[O-])cc1 [Chloramphenicol palmitate]
pIC50 [1, 3]: < 2.40

Oc1ccc(Cl)c2cccnc12 [Cloxiquine]
pIC50 [1, 3]: 3.36

C[C@H](N)[C@H](O)c1ccc(O)c(O)c1 [Corbadrine]
pIC50 [1, 3]: 4.28

O=C1CN(/N=C/c2ccc(-c3ccc([N+](=O)[O-])cc3)o2)C(O)=N1 [Dantrolene]
pIC50 [1, 3]: 4.00

O=c1c2ccccc2[se]n1-c1ccccc1 [Ebselen]
pIC50 [1, 3]: < 2.40

Cc1cc(-c2ccc(/N=N/c3ccc4c(S(=O)(=O)O)cc(S(=O)(=O)O)c(N)c4c3O)c(C)c2)ccc1/N=N/c1ccc2c(S(=O)(=O)O)cc(S(=O)(=O)O)c(N)c2c1O [Evans blue]
pIC50 [1, 3]: 2.43

O=c1c(-c2ccc(O)cc2)coc2cc(O)cc(O)c12 [Genistein]
pIC50 [1, 3]: 3.35

Cc1cc2c(C(C)C)c(O)c(O)c(C=O)c2c(O)c1-c1c(C)cc2c(C(C)C)c(O)c(O)c(C=O)c2c1O [Gossypol]
pIC50 [1, 3]: 3.96

CCOC(=O)[C@@H](N)CS [L-Cysteine ethyl ester]
pIC50 [1, 3]: < 2.40

C=CCN1CC[C@]23c4c5ccc(O)c4O[C@H]2/C(=N/N=C2\CC[C@@]4(O)[C@H]6Cc7ccc(O)c8c7[C@@]4(CCN6CC=C)[C@H]2O8)CC[C@@]3(O)[C@H]1C5 [Naloxonazine]
pIC50 [1, 3]: 2.77

O=C1C[C@@H](c2ccc(O)cc2)Oc2cc(O)cc(O)c21 [Naringenin]
pIC50 [2]: 3.66
Peak area as % of total area of all glycoforms, 14,569 (lysozyme): 4.9%
Peak area as % of total area of all glycoforms, 14,551 (lysozyme): 3.1%
Peak area as % of total area of all glycoforms, 14,533 (lysozyme): 1.8%
Peak area as % of total area of all glycoforms, 14,515 (lysozyme): 0.0%
Peak area as % of total area of all glycoforms, 14,419 (lysozyme): 7.5%
Peak area as % of total area of all glycoforms, 14,401 (lysozyme): 0.0%
Peak area as % of total area of all glycoforms, 14,437 (lysozyme): 24.4%
Peak area as % of total area of all glycoforms, 14,496 (lysozyme): 0.0%
Peak area as % of total area of all glycoforms, 14,364 (lysozyme): 0.1%
Peak area as % of total area of all glycoforms, 14,305 (lysozyme): 56.8%

NC(=O)N/N=C/c1ccc([N+](=O)[O-])o1 [Nitrofurazone]
Peak area as % of total area of all glycoforms, 14,569 (lysozyme): 4.2%
Peak area as % of total area of all glycoforms, 14,551 (lysozyme): 2.8%
Peak area as % of total area of all glycoforms, 14,533 (lysozyme): 2.4%
Peak area as % of total area of all glycoforms, 14,515 (lysozyme): 1.1%
Peak area as % of total area of all glycoforms, 14,419 (lysozyme): 5.8%
Peak area as % of total area of all glycoforms, 14,401 (lysozyme): 0.0%
Peak area as % of total area of all glycoforms, 14,437 (lysozyme): 21.4%
Peak area as % of total area of all glycoforms, 14,496 (lysozyme): 0.0%
Peak area as % of total area of all glycoforms, 14,364 (lysozyme): 1.6%
Peak area as % of total area of all glycoforms, 14,305 (lysozyme): 60.8%
maximum percentage of the inhibition ([1]; Maillard fluorescence, listed if significantly lower than 100%): 50%)
pIC50 [1, 3]: 4.34

CC(CCc1ccccc1)NC(C)C(O)c1ccc(O)cc1 (stereo not shown) [Nylidrin]
pIC50 [1, 3]: 2.74

O=C1CCN(c2ccccc2)N1 [Phenidone]
pIC50 [1, 3]: 2.89

O=c1c(O)c(-c2ccc(O)c(O)c2)oc2cc(O)cc(O)c12 [Quercetin]
pIC50 [1, 3]: 3.89

Cn1c([N+](=O)[O-])cnc1COC(N)=O [Ronidazole]
pIC50 [1, 3]: 3.02

O=[N+]([O-])c1cc([As](=O)(O)O)ccc1O [Roxarsone]
Peak area as % of total area of all glycoforms, 14,569 (lysozyme): 5.1%
Peak area as % of total area of all glycoforms, 14,551 (lysozyme): 1.3%
Peak area as % of total area of all glycoforms, 14,533 (lysozyme): 1.2%
Peak area as % of total area of all glycoforms, 14,515 (lysozyme): 0.0%
Peak area as % of total area of all glycoforms, 14,419 (lysozyme): 3.1%
Peak area as % of total area of all glycoforms, 14,401 (lysozyme): 0.0%
Peak area as % of total area of all glycoforms, 14,437 (lysozyme): 27.0%
Peak area as % of total area of all glycoforms, 14,496 (lysozyme): 0.0%
Peak area as % of total area of all glycoforms, 14,364 (lysozyme): 0.0%
Peak area as % of total area of all glycoforms, 14,305 (lysozyme): 62.4%
pIC50 [1, 3]: 3.64

COC1=C[C@@H]2[C@@H]3Cc4ccc(OC)c(O)c4[C@]2(CCN3C)CC1=O [Sinomenine]
pIC50 [1, 3]: < 2.40

O=C1c2c(O)cc(O)cc2O[C@H](c2ccc(O)c(O)c2)[C@H]1O [Taxifolin]
pIC50 [1, 3]: 4.00

Cc1c(C)c2c(c(C)c1O)CCC(C)(C(=O)O)O2 (stereo not shown) [Trolox C]
pIC50 [1, 3]: 3.33

O=[N+]([O-])c1ccc(O)cc1 [p-Nitrophenol]
pIC50 [1, 3]: < 2.40

CC(CCc1ccccc1)NCC(=O)c1ccc(O)c(O)c1 (stereo not drawn) [α-(1-Methyl-3-phenyl-propylamino)-3,4-dihydroxyacetophenone hydrochloride]
pIC50 [1, 3]: 3.05

D,L-Epinephrine
pIC50 [1]: 4.82

Pyrithioxin
pIC50 [1, 3]: < 2.40
